A word on the CC50: it is the concentration that lowers cell viability or growth by half. For orientation: EC50 means the concentration needed to bring the measured effect to its halfway point.

Structures are written as SMILES.

The nature of data set [1]: In vitro cytotoxicity assay (MTT cell viability) in HepG2 cells. It counts as cell-based, human. The settings on record: human. In outline:
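Parental HepG2 cells in EMEM + 10% FBS were exposed to compounds (8 half-log dilutions, 30 μM to 1.0 nM) for 7 days at 37 °C, 5% CO2. MTT was then added for 3-4 h, formazan dissolved in DMSO and absorbance read at 492 nm; CC50 came from 4-parameter fits against vehicle controls.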

Data set [2] deals with HBV replication in HepAD38 cells. The data set can be described thus: Anti-HBV replication assay in HepAD38 cells (QPCR of extracellular HBV DNA). It counts as cell-based, HBV (genotype D, serotype ayw). Particulars: Hepatitis B virus, 168 h, 7 days incubation, extracellular HBV DNA by QPCR, read-out: Anti-HBV EC50. A digest of the protocol: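 Read-out is QPCR of HBV DNA released into culture supernatant, converted to percent of vehicle control and fitted to give EC50. Cells were HepAD38 induced by tetracycline removal and dosed […] for 7 days.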

For the molecule `Cc1cc(NC(=O)c2c(C)c(C(=O)C(=O)N[C@H]3CCC[C@@H]3O)n(C)c2C)cnc1F` [Example 131, N-(6-fluoro-5-methylpyridin-3-yl)-5-(2-(((1S,2S)-2-hydroxycyclopentyl)amino)-2-oxoacetyl)-1,2,4-trimethyl-1H-pyrrole-3-carboxamide], the CC50 at 7 days in data set [1] is above 30 µM. Besides, the EC50 in data set [2] was in the range of 0.05 to 0.499 µM.

For the molecule `Cc1cc(NC(=O)c2c(C)c(C(=O)C(=O)NC(C)CN3CCOCC3)n(C)c2C)ccc1F` (centres unmarked) [Example 290, N-(4-fluoro-3-methylphenyl)-1,2,4-trimethyl-5-(2-((1-morpholinopropan-2-yl)amino)-2-oxoacetyl)-1H-pyrrole-3-carboxamide], the CC50 at 7 days in data set [1] was above 30 µM. The concentration giving a half-maximal response (EC50) in data set [2] is below 0.05 µM.

As to `Cc1cnc(C(NC(=O)C(=O)c2c(C)c(C(=O)Nc3ccc(F)c(C)c3)c(C)n2C)C2CC2)s1` (centres unmarked) [Example 83, 5-(2-((cyclopropyl(5-methylthiazol-2-yl)methyl)amino)-2-oxoacetyl)-N-(4-fluoro-3-methylphenyl)-1,2,4-trimethyl-1H-pyrrole-3-carboxamide], the half-maximal cytotoxic concentration (CC50) at 7 days in data set [1] lay in the range of 5 to 30 µM. Besides, in data set [2], the concentration for a half-maximal effect (EC50) was below 0.05 µM.

In turn, `Cc1cc(NC(=O)c2c(C)c(C(=O)C(=O)Nc3cccnc3)n(C)c2C)cnc1F` [Example 339, N-(6-fluoro-5-methylpyridin-3-yl)-1,2,4-trimethyl-5-(2-oxo-2-(pyridin-3-ylamino)acetyl)-1H-pyrrole-3-carboxamide] returned a 50% cytotoxic concentration (CC50) at 7 days in data set [1] above 30 µM. Further, the EC50 in data set [2] lay within 0.5 to 1 µM.

In turn, `Cc1cc(NC(=O)c2c(C)c(C(=O)C(=O)NC3(CO)CC(F)(F)C3)n(C)c2Cl)ccc1F` [Example 387, 2-chloro-5-(2-((3,3-difluoro-1-(hydroxymethyl)cyclobutyl)amino)-2-oxoacetyl)-N-(4-fluoro-3-methylphenyl)-1,4-dimethyl-1H-pyrrole-3-carboxamide] displayed a CC50 at 7 days in data set [1] of 5 to 30 µM. For the same molecule, the EC50 in data set [2] was above 1 µM.

In data set [1], `Cc1c(C(=O)Nc2ccnc(Cl)c2)c(C)n(C)c1C(=O)C(=O)NC(C)(C)CO` [Example 190, N-(2-chloropyridin-4-yl)-5-(2-((1-hydroxy-2-methylpropan-2-yl)amino)-2-oxoacetyl)-1,2,4-trimethyl-1H-pyrrole-3-carboxamide] displayed a CC50 at 7 days above 30 µM. Also, the EC50 in data set [2] is below 0.05 µM.

Consider `Cc1cc(NC(=O)c2c(C)c(C(=O)C(=O)NCc3nnc(C(F)(F)F)[nH]3)n(C)c2C)ccc1F` [Example 244, N-(4-fluoro-3-methylphenyl)-1,2,4-trimethyl-5-(2-oxo-2-(((t-(trifluoromethyl)-4H-1,2,4-triazol-3-yl)methyl)amino)acetyl)-1H-pyrrole-3-carboxamide], for which the CC50 at 7 days in data set [1] is 5 to 30 µM. Also, in data set [2], the EC50 fell in the range of 0.05 to 0.499 µM.

Consider `O=C(N[C@H]1CCC[C@H]1O)C(=O)c1c(Cl)c(C(=O)Nc2ccc(F)c(Cl)c2)c2n1CCC2` [Example 564, 6-chloro-N-(3-chloro-4-fluorophenyl)-5--(2-(((1S,2R)-2-hydroxycyclopentyl)amino)-2-oxoacetyl)-2,3-dihydro-1H-pyrrolizine-7-carboxamide], for which the CC50 at 7 days in data set [1] is 5 to 30 µM. The concentration for a half-maximal effect (EC50) in data set [2] is below 0.05 µM.

The molecule `Cc1cc(NC(=O)c2c(Cl)c(C(=O)C(=O)NC(C)(C)CO)n3c2CCCC3)ccc1F` [Example 490, 2-chloro-N-(4-fluoro-3-methylphenyl)-3-(2-((1-hydroxy-2-methylpropan-2-yl)amino)-2-oxoacetyl)-5,6,7,8-tetrahydroindolizine-1-carboxamide] showed a CC50 at 7 days in data set [1] above 30 µM. In data set [2], the EC50 was below 0.05 µM.

`Cc1cc(NC(=O)c2c(C)c(C(=O)C(=O)NCCN3CCSCC3)n(C)c2C)ccc1F` [Example 328, N-(4-fluoro-3-methylphenyl)-1,2,4-trimethyl-5-(2-oxo-2-((2-thiomorpholinoethyl)amino)acetyl)-1H-pyrrole-3-carboxamide]: in data set [1], the CC50 at 7 days is above 30 µM. In data set [2], the concentration for a half-maximal effect (EC50) was in the range of 0.05 to 0.499 µM.

Turning to `Cc1cc(NC(=O)c2cc(C(=O)C(=O)NC(C)(C)C)n3c2CCC3)ccc1F` [Example 536, 5-(2-(tert-butylamino)-2-oxoacetyl)-N-(4-fluoro-3-methylphenyl)-2,3-dihydro-1H-pyrrolizine-7-carboxamide], the 50% cytotoxic concentration (CC50) at 7 days in data set [1] was above 30 µM. The 50% effective concentration (EC50) in data set [2] was below 0.05 µM.

In turn, `Cc1cc(NC(=O)c2c(C)c(C(=O)C(=O)N[C@H]3CNC(=O)C3)n(C)c2C)ccc1F` [Example 611, (R)-N-(4-fluoro-3-methylphenyl)-1,2,4-trimethyl-5-(2-oxo-2-((5-oxopyrrolidin-3-yl)amino)acetyl)-1H-pyrrole-3-carboxamide] returned a cytotoxic concentration (CC50) at 7 days in data set [1] above 30 µM. Besides, the EC50 in data set [2] is below 0.05 µM.

As to `Cc1cc(NC(=O)c2c(Cl)c(C(=O)C(=O)NCc3cnc(N)s3)n3c2CCCC3)ccc1F` [Example 503, 3-(2-(((2-aminothiazol-5-yl)methyl)amino)-2-oxoacetyl)-2-chloro-N-(4-fluoro-3-methylphenyl)-5,6,7,8-tetrahydroindolizine-1-carboxamide], the CC50 at 7 days in data set [1] is above 30 µM. The EC50 in data set [2] is below 0.05 µM.

The molecule `Cc1cc(NC(=O)c2c(C)c(C(=O)C(=O)N[C@H]3CC[C@@H](C(=O)O)CC3)n(C)c2C)ccc1F` [Example 279, (1s,4s)-4-(2-(4-((4-fluoro-3-methylphenyl)carbamoyl)-1,3,5-trimethyl-1H-pyrrol-2-yl)-2-oxoacetamido)cyclohexane-1-carboxylic acid] gave a CC50 at 7 days in data set [1] above 30 µM. In addition, in data set [2], the concentration giving a half-maximal response (EC50) is 0.05 to 0.499 µM.

`Cc1cc(NC(=O)c2c(C)c(C(=O)C(=O)NC3(CO)CC(F)(F)C3)n(CCF)c2C)ccc1F` [Example 179, 5-(2-((3,3-difluoro-1-(hydroxymethyl)cyclobutyl)amino)-2-oxoacetyl)-N-(4-fluoro-33-methylphenyl)-1-(2-fluoroethyl)-2,4-dimethyl-1H-pyrrole-3-carboxamide]: the CC50 at 7 days in data set [1] fell in the range of 5 to 30 µM. The EC50 in data set [2] was below 0.05 µM.

The molecule `Cc1cc(NC(=O)c2c(Cl)c(C(=O)C(=O)NCC(C)(C)O)n(C)c2C)ccc1F` [Example 364, 4-chloro-N-(4-fluoro-3-methylphenyl)-5-(2-((2-hydroxy-2-methylpropyl)amino)-2-oxoacetyl)-1,2-dimethyl-1H-pyrrole-3-carboxamide] showed a CC50 at 7 days in data set [1] of 5 to 30 µM. For the same molecule, the EC50 in data set [2] is below 0.05 µM.

As to `Cc1c(C(=O)Nc2cccc(C(F)F)c2)c(C)n(C)c1C(=O)C(=O)N[C@]1(C)CC[C@@H](O)CC1` [Example 700, N-(3-(difluoromethyl)phenyl)-5-(2-(((1r,4r)-4-hydroxy-1-methylcyclohexyl)amino)-2-oxoacetyl)-1,2,4-rimethyl-1H-pyrrole-3-carboxamide], the cytotoxic concentration (CC50) at 7 days in data set [1] was above 30 µM. The 50% effective concentration (EC50) in data set [2] is below 0.05 µM.

Turning to `Cc1cc(NC(=O)c2c(C)c(C(=O)C(=O)N[C@H]3CC[C@](C)(O)CC3)n(C)c2C)ccc1F` [Example 213, N-(4-fluoro-3-methylphenyl)-5-(2-(((1r,4r)-4-hydroxy-4-methylcyclohexyl)amino)-2-oxoacetyl)-1,2,4-trimethyl-1H-pyrrole-3-carboxamide], the CC50 at 7 days in data set [1] was above 30 µM. For the same molecule, the EC50 in data set [2] was below 0.05 µM.

Molecule `Cc1cc(NC(=O)c2c(C)c(C(=O)C(=O)N[C@@H]3CCN(S(C)(=O)=O)C3)n(C)c2C)ccc1F` [Example 665, (R)-N-(4-fluoro-3-methylphenyl)-1,2,4-trimethyl-5-(2-((1-(methylsulfonyl)pyrrolidin-3-yl)amino)-2-oxoacetyl)-1H-pyrrole-3-carboxamide] yielded a 50% cytotoxic concentration (CC50) at 7 days in data set [1] of 5 to 30 µM. The EC50 in data set [2] was below 0.05 µM.

Molecule `Cc1csc(NC(=O)C(=O)c2c(C)c(C(=O)Nc3ccc(F)c(F)c3)c(C)n2C)n1` [Example 315, N-(3,4-difluorophenyl)-1,2,4-trimethyl-5-(2-((4-methylthiazol-2-yl)amino)-2-oxoacetyl)-1H-pyrrole-3-carboxamide] showed a CC50 at 7 days in data set [1] above 30 µM. The half-maximal effective concentration (EC50) in data set [2] is below 0.05 µM.

Consider `Cc1c(C(=O)Nc2ccnc(Cl)c2)c(C)n(C)c1C(=O)C(=O)NC(C)(C)CN1CCOCC1` [Example 331, N-(2-chloropyridin-4-yl)-1,2,4-trimethyl-5-(2-((2-methyl-1-morpholinopropan-2-yl)amino)-2-oxoacetyl)-1H-pyrrole-3-carboxamide], for which the cytotoxic concentration (CC50) at 7 days in data set [1] was above 30 µM. For the same molecule, the EC50 in data set [2] is below 0.05 µM.

In the case of `O=C(N[C@H]1C[C@H](O)C1)C(=O)c1c(Cl)c(C(=O)Nc2ccc(F)c(F)c2)c2n1CCCC2` [Example 533, 2-chloro-N-(3,4-difluorophenyl)-3-(2-(((1r,3r)-3-hydroxycyclobutyl)amino)-2-oxoacetyl)-5,6,7,8-tetrahydroindolizine-1-carboxamide], the half-maximal cytotoxic concentration (CC50) at 7 days in data set [1] is above 30 µM. The concentration for a half-maximal effect (EC50) in data set [2] was in the range of 0.5 to 1 µM.

In turn, `Cc1cc(NC(=O)c2c(C)c(C(=O)C(=O)NC3(C(F)(F)F)CC3)n(C)c2C)cnc1F` [Example 234, N-(6-fluoro-5-methylpyridin-3-yl)-1,2,4-trimethyl-5-(2-oxo-2-((1-(trifluoromethyl)cyclopropyl)amino)acetyl)-1H-pyrrole-3-carboxamide] gave a CC50 at 7 days in data set [1] above 30 µM. Further, the half-maximal effective concentration (EC50) in data set [2] was below 0.05 µM.

`CC(C)(CO)CNC(=O)C(=O)c1c(Cl)c(C(=O)Nc2ccnc(F)c2)c2n1CCCC2` [Example 526, 2-chloro-N-(2-fluoropyridin-4-yl)-3-(2-((3-hydroxy-2,2-dimethylpropyl)amino)-2-oxoacetyl)-5,6,7,8-tetrahydroindolizine-1-carboxamide] showed a cytotoxic concentration (CC50) at 7 days in data set [1] above 30 µM. Also, the EC50 in data set [2] is above 1 µM.

In turn, `Cc1nc2c(s1)C(NC(=O)C(=O)c1c(C)c(C(=O)Nc3ccc(F)c(C)c3)c(C)n1C)CCC2` (centres unmarked) [Example 355, N-(4-fluoro-3-methylphenyl)-1,2,4-trimethyl-5-(2-((2-methyl-4,5,6,7-tetrahydrobenzo[d]thiazol-7-yl)amino)-2-oxoacetyl)-1H-pyrrole-3-carboxamide] came in with a half-maximal cytotoxic concentration (CC50) at 7 days in data set [1] above 30 µM. The EC50 in data set [2] is below 0.05 µM.

Values taken from patent publication US20190375708A1 (VenatoRx Pharmaceuticals, Inc., priority 2018, published 2019).
